Measured values: publication PMC11239673, “Structural basis for the bi-specificity of USP25 and USP28 inhibitors” (EMBO Reports, 2024)
Residue numbers refer to the chain shown, from its start.

Legend:
Format in all cases: biochemical
[1] = target: T1, USP25Δtip L271F (Homo sapiens, UniProt Q9UHP3, DEL465-537/INS464GSGSGS/L271F); experiment: Ub-Rho110 dose–response assay, USP25Δtip L271F
T1 construct: 6xHis or thioredoxin-6xHis (N, cleaved yes); made in house; host or cells: E. coli BL21star (DE3)
T1 sequence (Q9UHP3 with tags, fused parts or gaps L271F/DEL465-477/P478G/DEL482-535/A536G/P537S limits assumed): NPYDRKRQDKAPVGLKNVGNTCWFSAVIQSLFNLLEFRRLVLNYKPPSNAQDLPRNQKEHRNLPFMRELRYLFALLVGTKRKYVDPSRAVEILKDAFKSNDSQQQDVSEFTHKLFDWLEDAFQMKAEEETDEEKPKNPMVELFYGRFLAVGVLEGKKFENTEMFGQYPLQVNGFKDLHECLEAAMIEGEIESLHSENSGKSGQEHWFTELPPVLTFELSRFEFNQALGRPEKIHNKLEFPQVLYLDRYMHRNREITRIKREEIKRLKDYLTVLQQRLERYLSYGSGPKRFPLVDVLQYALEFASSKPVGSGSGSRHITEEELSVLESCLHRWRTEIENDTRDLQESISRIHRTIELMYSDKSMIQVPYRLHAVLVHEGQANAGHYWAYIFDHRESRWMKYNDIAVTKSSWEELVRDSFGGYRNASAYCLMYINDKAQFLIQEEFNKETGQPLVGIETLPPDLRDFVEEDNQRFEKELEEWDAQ

[2] = target: T2, USP25Δtip D272S (Homo sapiens, UniProt Q9UHP3, D272S/DEL465-537/INS464GSGSGS); experiment: Ub-Rho110 dose–response assay, USP25Δtip D272S
T2 construct: 6xHis or thioredoxin-6xHis (N, cleaved yes); made in house; host or cells: E. coli BL21star (DE3)
T2 sequence (Q9UHP3 with tags, fused parts or gaps D272S/DEL465-477/P478G/DEL482-535/A536G/P537S limits assumed): T1 sequence (Q9UHP3 with tags, fused parts or gaps L271F/DEL465-477/P478G/DEL482-535/A536G/P537S limits assumed) with F115L, D116S

[3] = target: T3, USP25Δtip H268A (Homo sapiens, UniProt Q9UHP3, DEL465-537/H268A/INS464GSGSGS); experiment: Ub-Rho110 dose–response assay, USP25Δtip H268A
T3 construct: 6xHis or thioredoxin-6xHis (N, cleaved yes); made in house; host or cells: E. coli BL21star (DE3)
T3 sequence (Q9UHP3 with tags, fused parts or gaps H268A/DEL465-477/P478G/DEL482-535/A536G/P537S limits assumed): T1 sequence (Q9UHP3 with tags, fused parts or gaps L271F/DEL465-477/P478G/DEL482-535/A536G/P537S limits assumed) with H112A, F115L

[4] = target: T4, USP25Δtip WT (Homo sapiens, UniProt Q9UHP3, A536G/DEL465-477/DEL482-535/P478G/P537S); experiment: Ub-Rho110 dose–response assay, USP25Δtip wt; details: single replicates
T4 construct: 6xHis or thioredoxin-6xHis (N, cleaved yes); made in house; host or cells: E. coli BL21star (DE3)
T4 sequence (Q9UHP3 with tags, fused parts or gaps DEL465-477/P478G/DEL482-535/A536G/P537S limits assumed): T1 sequence (Q9UHP3 with tags, fused parts or gaps L271F/DEL465-477/P478G/DEL482-535/A536G/P537S limits assumed) with F115L

## Cc1ccc2c(N)c(C(=O)NC3CCc4cc(N5CC6CCC(C5)N6)ccc4C3)sc2n1 (centres unmarked) [FT206]
[1]; p value, inhibitor IC50 on USP25 L271F compared with USP25 WT
  t-test vs. USP25 WT control - L271F: 4.479E-03
[1]; read-out: relative inhibition [%] - USP25 - L271F, inhibitor 11.11 µM, single replicates
  inhibition at 11.11 µM: 90.1%
[1]; read-out: relative inhibition [%] - USP25 - L271F, inhibitor 33.33 µM, single replicates
  inhibition at 33.33 µM: 95.6%
[1]; read-out: relative inhibition [%] - USP25 - L271F, inhibitor 100.00 µM, single replicates
  inhibition at 100 µM: 100%
[2]; p value, inhibitor IC50 on USP25 D272S compared with USP25 WT
  t-test vs. USP25 WT control - D272S: 3.650E-02
[2]; read-out: relative inhibition [%] - USP25 - D272S, inhibitor 33.33 µM, single replicates
  inhibition at 33.33 µM: 87.3%
[2]; read-out: relative inhibition [%] - USP25 - D272S, inhibitor 100.00 µM, single replicates
  inhibition at 100 µM: 95.2%
[3]; p value, inhibitor IC50 on USP25 H268A compared with USP25 WT
  t-test vs. USP25 WT control - H268A: 1.749E-05
[3]; read-out: relative inhibition [%] - USP25 - H268A
  inhibition at 11.11 µM: 29.7%
[3]; read-out: relative inhibition [%] - USP25 - H268A, inhibitor 33.33 µM, single replicates
  inhibition at 33.33 µM: 55.5%
[3]; read-out: relative inhibition [%] - USP25 - H268A, inhibitor 100.00 µM, single replicates
  inhibition at 100 µM: 78.2%
[4]; read-out: relative inhibition [%] - USP25 - WT, inhibitor 11.11 µM
  inhibition at 11.11 µM: 91.9%
[4]; read-out: relative inhibition [%] - USP25 - WT, inhibitor 33.33 µM
  inhibition at 33.33 µM: 99%
[4]; read-out: relative inhibition [%] - USP25 - WT, inhibitor 100.00 µM
  inhibition at 100 µM: 100%
